Results taken from PubChem BioAssay AID1259407 (Chemical Carcinogenesis Research Information System (CCRIS), 2018).
Calls of active or inactive are those of the source. The rule behind the calls is not given here.

Tested on: CCRIS mutagenicity, Ames/micronucleus/aberration tests
Assay: CCRIS mutagenicity studies
[1] = Test System: AMES SALMONELLA TYPHIMURIUM, Strain/Indicator: TA100, Metabolic Activation: NONE, Method: STANDARD PLATE

CCOC(=O)C(=NNc1ccc(-c2ccc(NN=C(C(=O)OCC)C(=O)OCC)c(Cl)c2)cc1Cl)C(=O)OCC
mutagenic call (Test System: AMES SALMONELLA TYPHIMURIUM, Strain/Indicator: TA98, Metabolic Activation: HAMSTER, LIVER, S-9, Method: PREINCUBATION (PRIVAL METHOD)): inactive; negative | mutagenic call (Test System: AMES SALMONELLA TYPHIMURIUM, Strain/Indicator: TA98, Metabolic Activation: NONE, Method: PREINCUBATION (PRIVAL METHOD)): inactive; negative

CCC(=O)C(C)=O
mutagenic call (Test System: AMES SALMONELLA TYPHIMURIUM, Strain/Indicator: TA98, Metabolic Activation: NONE, Method: PREINCUBATION): inactive; negative | mutagenic call (Test System: AMES SALMONELLA TYPHIMURIUM, Strain/Indicator: TA98, Metabolic Activation: RAT, LIVER, S-9, AROCLOR 1254, Method: PREINCUBATION): inactive; negative | mutagenic call (Test System: AMES SALMONELLA TYPHIMURIUM, Strain/Indicator: TA100, Metabolic Activation: NONE, Method: PREINCUBATION): inactive; negative | mutagenic call (Test System: AMES SALMONELLA TYPHIMURIUM, Strain/Indicator: TA100, Metabolic Activation: RAT, LIVER, S-9, AROCLOR 1254, Method: PREINCUBATION): inactive; negative | mutagenic call (Test System: AMES SALMONELLA TYPHIMURIUM, Strain/Indicator: TA102, Metabolic Activation: NONE, Method: PREINCUBATION): inactive; negative | mutagenic call (Test System: AMES SALMONELLA TYPHIMURIUM, Strain/Indicator: TA102, Metabolic Activation: RAT, LIVER, S-9, AROCLOR 1254, Method: PREINCUBATION): inactive; negative

C[C@]12CC[C@@H]3c4cc(O)c(O)cc4CC[C@H]3[C@@H]1CC[C@@H]2O
mutagenic call (End Point: In vitro micronucleus, Test System: Human lymphocytes, Metabolic Activation: None): active; positive only at 10 ug/ml in cytochalasin block micronuclei; no dose response | mutagenic call (Test System: Ames Salmonella typhimurium, Strain/Indicator: TA98, Metabolic Activation: None, Method: Standard plate): inactive; negative | mutagenic call (Test System: Ames Salmonella typhimurium, Strain/Indicator: TA98, Metabolic Activation: Rat, liver, S-9, Method: Standard plate): inactive; negative | mutagenic call (Test System: Ames Salmonella typhimurium, Strain/Indicator: TA100, Metabolic Activation: None, Method: Standard plate): inactive; negative | mutagenic call (Test System: Ames Salmonella typhimurium, Strain/Indicator: TA100, Metabolic Activation: Rat, liver, S-9, Method: Standard plate): inactive; negative

Fc1ccc(CN2C3c4ccccc4-c4ccccc4C32)cc1 (stereo unspecified)
mutagenic call [1]: active; positive

CC(Br)c1ccccc1 (stereo unspecified)
mutagenic call (Test System: AMES SALMONELLA TYPHIMURIUM, Strain/Indicator: TA98, Metabolic Activation: NONE, Method: STANDARD PLATE): inactive; negative | mutagenic call [1]: inactive; negative
